Test results as given in patent US20100285959A1, “HERBICIDAL MIXTURES” (priority 2006, published 2010).

Tests used:
Experiment in all cases: Test 14 field trial, preemergence, growth as percent of control
[1] = system: yellow nutsedge (CYPES); type: in vivo, Cyperus esculentus
From the text: (§1) Corn seeds (hybrid ‘Pioneer 31G96 RR’) were planted in mid spring season, 3.8 cm deep in a clay loam soil having 2% organic matter and a pH of 6.6. Plots were 6.1 m long by 3.0 m wide with rows spaced 76 cm apart. Seeds were spaced 15 cm apart within the rows. The field was managed using conventional tillage practices. […] Yellow nutsedge was only evaluated 19 and 28 days after application, and ivyleaf morningglory could only be evaluated 28 days after application. […] Results are the means of the three replicates. This growth inhibition data was converted to results in the form of “plant growth as a percent of control plant growth” using the calculation “100 minus growth inhibition”. […] For “growth as a percent of control” data, Colby's Equation calculates the expected additive effect of herbicidal mixtures having two active ingredients as follows:
(§2) Ga+b=GaGb/100 • wherein Ga+b is the growth as a percent of control of plants treated with the mixture expected from additive contribution of the individual components, • Ga is the observed growth as a percent of control of plants treated with the first active ingredient at the same use rate as in the mixture, and • Gb is the observed growth as a percent of control of plants treated with the second active ingredient at the same use rate as in the mixture. For mixtures having three active ingredients, Colby's Equation to calculate the expected additive effect of herbicidal mixtures is as follows:
(§3) Ga+b+c=GaGbGc/10,000 • wherein Ga and Gb are as defined above and • Ga+b+c is the growth as a percent of control of plants treated with the mixture expected from additive contribution of the individual components, and • Gc is the observed growth as a percent of control of plants treated with the third active ingredient at the same use rate as in the mixture. When these two forms of Colby's Equation are used, if the observed effects on weeds are less than the expected values, the mixture is synergistic.

[2] = system: jimsonweed (DATST); type: in vivo, Datura stramonium
From the text: as §1, §2, §3

[3] = system: ivyleaf morningglory (IPOHE); type: in vivo, Ipomoea hederacea; settings: 28 DAA
From the text: as §1, §2, §3

[4] = system: giant foxtail (SETFA); type: in vivo, Setaria faberi
From the text: as §1, §2, §3

[5] = system: common ragweed (AMBEL); type: in vivo, Ambrosia artemisiifolia
From the text: as §1, §2, §3

[6] = system: ladysthumb smartweed (POLPE); type: in vivo, Polygonum persicaria
From the text: as §1, §2, §3

[7] = system: giant ragweed (AMBTR); type: in vivo, Ambrosia trifida
From the text: as §1, §2, §3

[8] = system: velvetleaf (ABUTH); type: in vivo, Abutilon theophrasti
From the text: as §1, §2, §3

CCS(=O)(=O)c1cccnc1S(=O)(=O)NC(=O)Nc1nc(OC)cc(OC)n1 [Rimsulfuron]
Obs growth % of control ([1]; 19 DAA, 12 g a.i./ha): 85%
Obs growth % of control ([1]; 19 DAA, 24 g a.i./ha): 85%
Obs growth % of control ([1]; 19 DAA, 36 g a.i./ha): 70%
Obs growth % of control ([1]; 28 DAA, 12 g a.i./ha): 83%
Obs growth % of control ([1]; 28 DAA, 24 g a.i./ha): 60%
Obs growth % of control ([1]; 28 DAA, 36 g a.i./ha): 50%
Obs growth % of control ([2]; 19 DAA, 12 g a.i./ha): 100%
Obs growth % of control ([2]; 19 DAA, 24 g a.i./ha): 93%
Obs growth % of control ([2]; 19 DAA, 36 g a.i./ha): 85%
Obs growth % of control ([2]; 28 DAA, 12 g a.i./ha): 100%
Obs growth % of control ([2]; 28 DAA, 24 g a.i./ha): 62%
Obs growth % of control ([2]; 28 DAA, 36 g a.i./ha): 48%
Obs growth % of control ([2]; 56 DAA, 12 g a.i./ha): 100%
Obs growth % of control ([2]; 56 DAA, 24 g a.i./ha): 92%
Obs growth % of control ([2]; 56 DAA, 36 g a.i./ha): 92%
Obs growth % of control ([3]; 12 g a.i./ha): 100%
Obs growth % of control ([3]; 24 g a.i./ha): 3%
Obs growth % of control ([3]; 36 g a.i./ha): 43%
Obs growth % of control ([4]; 19 DAA, 12 g a.i./ha): 32%
Obs growth % of control ([4]; 19 DAA, 24 g a.i./ha): 33%
Obs growth % of control ([4]; 19 DAA, 36 g a.i./ha): 7%
Obs growth % of control ([4]; 28 DAA, 12 g a.i./ha): 33%
Obs growth % of control ([4]; 28 DAA, 24 g a.i./ha): 9%
Obs growth % of control ([4]; 28 DAA, 36 g a.i./ha): 5%
Obs growth % of control ([4]; 56 DAA, 12 g a.i./ha): 70%
Obs growth % of control ([4]; 56 DAA, 24 g a.i./ha): 40%
Obs growth % of control ([4]; 56 DAA, 36 g a.i./ha): 28%
Obs growth % of control ([5]; 19 DAA, 12 g a.i./ha): 88%
Obs growth % of control ([5]; 19 DAA, 24 g a.i./ha): 80%
Obs growth % of control ([5]; 19 DAA, 36 g a.i./ha): 68%
Obs growth % of control ([5]; 28 DAA, 12 g a.i./ha): 100%
Obs growth % of control ([5]; 28 DAA, 24 g a.i./ha): 45%
Obs growth % of control ([5]; 28 DAA, 36 g a.i./ha): 33%
Obs growth % of control ([5]; 56 DAA, 12 g a.i./ha): 85%
Obs growth % of control ([5]; 56 DAA, 24 g a.i./ha): 63%
Obs growth % of control ([5]; 56 DAA, 36 g a.i./ha): 53%
Obs growth % of control ([6]; 19 DAA, 12 g a.i./ha): 82%
Obs growth % of control ([6]; 19 DAA, 24 g a.i./ha): 58%
Obs growth % of control ([6]; 19 DAA, 36 g a.i./ha): 32%
Obs growth % of control ([6]; 28 DAA, 12 g a.i./ha): 100%
Obs growth % of control ([6]; 28 DAA, 24 g a.i./ha): 33%
Obs growth % of control ([6]; 28 DAA, 36 g a.i./ha): 35%
Obs growth % of control ([6]; 56 DAA, 12 g a.i./ha): 100%
Obs growth % of control ([7]; 19 DAA, 12 g a.i./ha): 88%
Obs growth % of control ([7]; 19 DAA, 24 g a.i./ha): 80%
Obs growth % of control ([7]; 19 DAA, 36 g a.i./ha): 75%
Obs growth % of control ([7]; 28 DAA, 12 g a.i./ha): 100%
Obs growth % of control ([7]; 28 DAA, 24 g a.i./ha): 60%
Obs growth % of control ([7]; 28 DAA, 36 g a.i./ha): 60%
Obs growth % of control ([7]; 56 DAA, 12 g a.i./ha): 90%
Obs growth % of control ([7]; 56 DAA, 24 g a.i./ha): 83%
Obs growth % of control ([7]; 56 DAA, 36 g a.i./ha): 68%
Obs growth % of control ([8]; 19 DAA, 12 g a.i./ha): 78%
Obs growth % of control ([8]; 19 DAA, 24 g a.i./ha): 62%
Obs growth % of control ([8]; 19 DAA, 36 g a.i./ha): 52%
Obs growth % of control ([8]; 28 DAA, 12 g a.i./ha): 53%
Obs growth % of control ([8]; 28 DAA, 24 g a.i./ha): 13%
Obs growth % of control ([8]; 28 DAA, 36 g a.i./ha): 15%
Obs growth % of control ([8]; 56 DAA, 12 g a.i./ha): 93%
Obs growth % of control ([8]; 56 DAA, 24 g a.i./ha): 65%
Obs growth % of control ([8]; 56 DAA, 36 g a.i./ha): 62%
